Legend:
[1] = Lipophilicity by reverse-phase HPLC; type: physicochemical; settings: aqueous phase pH 7.5, text calls it log k′w
[2] = molecular target: σ1 receptors (Cavia porcellus, UniProt Q60492); experiment: σ1 receptor binding, competition against [3H]; set-up: species or system guinea pig; settings: for Hill Slope: guinea pig brain membranes, mean ± SEM; for fold lower σ1 receptor affinity than positional isomers: 2-substituted ligand versus its 3- and/or 4-substituted isomers
σ1 receptors, sequence (Q60492 whole entry): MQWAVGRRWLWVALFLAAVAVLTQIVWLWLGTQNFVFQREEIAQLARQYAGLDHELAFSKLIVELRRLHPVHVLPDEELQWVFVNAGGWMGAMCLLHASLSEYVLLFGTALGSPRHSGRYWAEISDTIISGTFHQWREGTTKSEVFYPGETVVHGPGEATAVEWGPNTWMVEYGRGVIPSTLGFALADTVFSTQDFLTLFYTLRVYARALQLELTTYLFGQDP

Structure (SMILES)	k′w [1]	IC50 [2] [nM]	Ki [2] [nM]	fold poorer Ki value than compounds 6 or 9 ([2]; 4-iodo versus 4-fluoro or 4-bromo derivative) [fold]	Hill Slope [2]	fold lower σ1 receptor affinity than positional isomers [2] [fold]
Clc1ccc(CCNCCNCCc2ccc(I)cc2)cc1Cl [Compound 11, N-[2-(3,4-Dichlorophenyl)-ethyl]-N′-[2-(4-iodophenyl)-ethyl]-ethane-1,2-diamine]	3.71 ± 0.05	22.9 ± 0.94	15.8 ± 0.65	2	−1.59 ± 0.08	
Clc1ccc(CCNCCNCCc2ccccc2Br)cc1Cl [Compound 7, N-[2-(2-Bromophenyl)-ethyl]-N′-[2-(3,4-dichlorophenyl)-ethyl]-ethane-1,2-diamine]	3.09 ± 0.05	26.6 ± 3.95	18.4 ± 2.73		−0.78 ± 0.03	2.7
Fc1ccccc1CCNCCNCCc1ccc(Cl)c(Cl)c1 [Compound 4, N-[2-(3,4-Dichlorophenyl)-ethyl]-N′-[2-(2-fluorophenyl)-ethyl]-ethane-1,2-diamine]		17.5 ± 0.31	12.1 ± 0.22		−1.07 ± 0.01	1.5
Clc1ccc(CCNCCNCCc2cccc(Br)c2)cc1Cl [Compound 8, N-[2-(3-Bromophenyl)-ethyl]-N′-[2-(3,4-dichlorophenyl)-ethyl]-ethane-1,2-diamine]	3.06 ± 0.07	9.14 ± 0.85	6.35 ± 0.59		−1.02 ± 0.15	
Clc1ccc(CCNCCNCCc2ccc(Br)cc2)cc1Cl [Compound 9, N-[2-(4-Bromophenyl)-ethyl]-N′-[2-(3,4-dichlorophenyl)-ethyl]-ethane-1,2-diamine]	3.31 ± 0.08	9.85 ± 3.92	6.8 ± 2.71		−1.00 ± 0.02	
Clc1ccc(CCNCCNCCc2ccccc2I)cc1Cl [Compound 10, N-[2-(3,4-Dichlorophenyl)-ethyl]-N′-[2-(2-iodophenyl)-ethyl]-ethane-1,2-diamine]		62.5 ± 0.96	43.2 ± 0.66		−1.12 ± 0.03	2.7
Fc1cccc(CCNCCNCCc2ccc(Cl)c(Cl)c2)c1 [Compound 5, N-[2-(3,4-Dichlorophenyl)-ethyl]-N′-[2-(3-fluorophenyl)-ethyl]-ethane-1,2-diamine]	2.54	11.2 ± 1.29	7.74 ± 0.89		−1.13 ± 0.09	
Fc1ccc(CCNCCNCCc2ccc(Cl)c(Cl)c2)cc1 [Compound 6, N-[2-(3,4-Dichlorophenyl)-ethyl]-N′-[2-(4-fluorophenyl)-ethyl]-ethane-1,2-diamine]	2.54 ± 0.05	11.3 ± 2.02	7.83 ± 1.39		−1.21 ± 0.05	

— paper PMC3615439 (Medicinal chemistry, 2011)
